Test [1] concerns NCI murine P388 lymphocytic leukemia cell line. The test can be described thus: P388 (PS system) lymphocytic leukemia cell growth inhibition in culture, NCI protocol. The test is classed as cell-based. As to conditions: concentration required to inhibit growth of tumor cells in culture by 50 percent. The source says:
(§1) The isolation and purification methods chosen can be monitored at each step by performing in-vitro and/or in-vivo antitumor tests as described by R. I. Geran, N.H. Greenberg, M. M. MacDonald, A.M. Schumacher and B. S. Abbot in Cancer Chemotherapy Rep., Part 3, Vol 3: 1-103 (1972); and by Schmidt, J. M.; Pettit, G. R. in Experientia 1978, 34: 659-660. Such tests include the determination of the concentration of active material required to inhibit the growth of tumor cells in culture, (e.g. the concentration required to inhibit growth by 50 percent or the E.D.₅₀) and of the dose of active material required to prolong the life of mice bearing transplanted tumors ("life extension").

Test [2] has as its system P388 lymphocytic leukemia. Briefly: In vivo P388 (PS) lymphocytic leukemia life extension, NCI protocol. Set-up: species or system mice. Particulars: in vivo P388 lymphocytic leukemia system; dose not given.
Description: as §1

Molecules are shown by their SMILES. Residues, ends and D or L forms follow the SMILES beside them.

Data on 1 compound can be found in patent EP0528583A1, “Isolation and structure of the cell growth inhibitory cycloheptapeptide axinastatin 1” (ARIZONA BOARD OF REGENTS, priority 1991, dated 1993).

As for `CC(C)[C@@H]1NC(=O)[C@H](Cc2ccccc2)NC(=O)[C@@H]2CCCN2C(=O)[C@H](CC(N)=O)NC(=O)[C@H](C(C)C)NC(=O)[C@@H]2CCCN2C(=O)[C@H](C(C)C)NC1=O` [axinastatin 1, cyclo (Asn-Pro-Phe-Val-Val-Pro-Val)] (cyclo(FVVPVNP)), in test [1], the “PS ED₅₀” value stood at 0.21 µg/mL. Also, in test [2], the life extension turned out to be 20%.
